Test [1] addresses MAP4K1 (HPK1) (Homo sapiens (Human), UniProt Q92918). As to the kind of experiment: MAP4K1 (HPK1) biochemical enzymatic activity, electrophoretic mobility shift (EZReader 2), ATP at APPKM (26 μM). The text has this:
MAP4K1 (HPK1) and relevant off-target enzymatic activity was monitored using the Perkin Elmer electrophoretic mobility shift technology platform—the EZReader 2. […] Within the linear, steady-state phase of the kinase enzymatic reaction, the mixed pool of phosphorylated (product) and non-phosphorylated (substrate) peptides was passed through the microfluidic system of the PerkinElmer EZ Reader 2, under an applied electric potential difference. The presence of the phosphate group on the product peptide provided a difference in mass and charge between that of the substrate peptide, resulting in a separation of the substrate and product pools in the sample (Perrin et al. 2010). As the product and substrate peptide mixture passes the lasers within the instrument, these pools are detected (λex=488 nm, λent=568 nm) and resolved as separate peaks. The ratio between these peaks reflects the activity of the compound at that concentration, in that well, under those conditions.
Inhibitors were dissolved in 100% DMSO at a stock concentration of 10 mM. A 100×, 10-point, 4-fold serial dilution of each inhibitor was created in 100% DMSO either manually or on a Hamilton STAR liquid handler, starting at a relevant concentration, usually 1 mM. A volume of 0.130 μL of each concentration was transferred to the relevant wells of a 384-well plate (Greiner 781 201) in duplicate using a TTPLabtech Mosquito nano-litre dispenser. Using a Multidrop Combi, the remaining constituents of the kinase reaction were added to the 130 nL of dosed compound as follows (see table below for final reaction details):
Enzyme activity assays at the ^APPKM for ATP or 1 mM ATP: In each well of a 384-well plate, 0.1-15 nM of untreated enzyme was incubated in a total of 13 μL of buffer (100 mM HEPES pH 7.5, 0.015% Brij 35, 10 mM MgCl2, 1 mM DTT) with 1.5 μM fluorescent peptid and 20-1000 μM ATP, at 25° C., for 60-180 minutes in the presence or absence of a dosed concentration series of compound (1% DMSO final concentration). The kinase reactions were stopped by the addition of 70 μl of Stop buffer (100 mM HEPES pH 7.5, 0.015% Brij 35, 35 mM EDTA and 0.2% of Coating Reagent 3 (Caliper Lifesciences)). The plates were read on a Caliper EZReader 2 as described above.
For orientation: Mobility shift assays separate free from complexed probe on a gel.

For test [2], the system named is expanded CD3+ T cells. Description: T cell enhancement of cytokines: IL2 measurement (HTRF) in expanded CD3+ T cells stimulated with anti-CD3/anti-CD28. The class given is cell-based, human. To be noted: IL-2 measurement. How it is done: T cells are isolated from whole blood of healthy donors by immunomagnetic negative selection following manufacture's protocol (StemCell Technologies, human T cell isolation kit). Purity of isolated cells is assessed by flow cytometry and yields 95-98% CD3^+ T cells. For expansion of T cells, 1×10^6 cells/well are plated in serum free cell expansion media (ThermoFisher) containing 30 U of recombinant human IL2 (R&D) and stimulated with 25 ul of CD3/CD28 beads (Invitrogen) in 24 well plates for 3-4 days. T cells are then expanded in 175 cm flasks and maintained at a cell density of 1 to 2.5×10^6 cells/ml days by addition of ⅔ of fresh media every 2-3 days. After 10-14 days, cells are frozen in BamBanker freezing media (Thermo) and stored in liquid nitrogen.
For IL2 measurement, expanded CD3^+ T cells are dispensed at 100K cells/well (cultured in X-VIVO 10 Serum-free media) and are stimulated with plate-bound anti-CD3 and soluble anti-CD28 in the presence of vehicle or compound of the disclosure at various concentrations for 24 h. As outlined in the manufacturer's protocol (Cisbio), 16 μL of conditioned media is transferred to a white 384-well low volume plate. Following a 24 h incubation with the anti-IL2 antibodies, the homogenous time resolved fluorescence (HTRF) is measured.
In general terms: In TR-FRET formats the signal depends on donor and acceptor labels being close together.

A value given as a limit tells only on which side of the number the result lay.

MAP4K1 (HPK1), sequence (Q92918 whole entry): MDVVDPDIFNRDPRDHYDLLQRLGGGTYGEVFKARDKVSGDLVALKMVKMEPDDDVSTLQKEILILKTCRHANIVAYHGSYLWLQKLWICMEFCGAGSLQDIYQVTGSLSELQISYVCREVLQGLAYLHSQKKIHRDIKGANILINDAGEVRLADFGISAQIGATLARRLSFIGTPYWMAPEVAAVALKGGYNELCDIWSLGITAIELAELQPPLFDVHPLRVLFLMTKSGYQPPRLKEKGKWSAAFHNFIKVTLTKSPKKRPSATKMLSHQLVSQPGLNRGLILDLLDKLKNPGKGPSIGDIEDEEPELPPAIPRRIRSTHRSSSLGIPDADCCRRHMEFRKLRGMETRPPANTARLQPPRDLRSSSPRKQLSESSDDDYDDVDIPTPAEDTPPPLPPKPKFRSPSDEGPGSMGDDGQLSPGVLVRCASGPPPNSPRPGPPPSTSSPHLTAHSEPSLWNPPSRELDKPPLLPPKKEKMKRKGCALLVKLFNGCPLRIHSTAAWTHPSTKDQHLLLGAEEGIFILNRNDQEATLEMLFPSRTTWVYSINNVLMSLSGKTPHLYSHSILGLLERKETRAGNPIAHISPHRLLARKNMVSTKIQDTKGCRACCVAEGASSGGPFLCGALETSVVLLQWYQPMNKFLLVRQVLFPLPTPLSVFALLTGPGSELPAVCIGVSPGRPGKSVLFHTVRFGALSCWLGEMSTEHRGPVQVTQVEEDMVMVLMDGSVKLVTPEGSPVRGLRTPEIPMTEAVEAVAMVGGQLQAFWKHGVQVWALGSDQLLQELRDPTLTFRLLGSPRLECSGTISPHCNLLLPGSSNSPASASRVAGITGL

Regarding `COc1ncc(C(C)(C)N)c2cc(Nc3ccc4c(n3)[C@@H](C)COC4=O)ncc12` (single isomer, unassigned) [Compound 22], the IC50 (commonly the midpoint of a concentration-inhibition curve) was 0.31 to 1 nM in test [1] (class designation) and 0.5 nM in test [1] (numeric value). Besides, the figures for the EC50 in test [2] (class designation) and in test [2] (numeric value) were 35.1 to 45 nM and 36.6 nM, respectively.
For `COc1ncc(C(C)(C)N)c2cc(Nc3ccc4c(n3)[C@@H](C)COC4=O)ncc12` (single isomer, unassigned) [Compound 23], the half-maximal inhibitory concentration (IC50) is < 0.3 nM in test [1] (class designation) and 0.11 nM in test [1] (numeric value). Besides, the results for the EC50 in test [2] (class designation) and in test [2] (numeric value) were < 35 nM and 4.9 nM, respectively.
As to `COc1ncc(C(C)(C)N)c2cc(Nc3ccc4c(n3)C[C@@H](C)OC4=O)ncc12` (single isomer, unassigned) [Compound 24], the IC50 is 0.31 to 1 nM in test [1] (class designation) and 0.47 nM in test [1] (numeric value). The EC50 (usually the concentration needed to bring the measured effect to its halfway point) in test [2] (class designation) was < 35 nM; in test [2] (numeric value), 11.3 nM.
With `COc1ncc(C(C)(C)N)c2cc(Nc3ccc4c(n3)C[C@H](C)OC4=O)ncc12` (single isomer, unassigned) [Compound 25], the IC50 was < 0.3 nM in test [1] (class designation) and 0.29 nM in test [1] (numeric value). The EC50 was < 35 nM in test [2] (class designation) and 3.3 nM in test [2] (numeric value).
As to `COc1ncc(C(C)(C)N)c2cc(Nc3ccc4c(n3)[C@@H](C)[C@@H](C)OC4=O)ncc12` (single isomer, unassigned) [Compound 39], the half-inhibitory concentration (IC50) was 0.31 to 1 nM in test [1] (class designation) and 0.85 nM in test [1] (numeric value). In addition, the results for the EC50 in test [2] (class designation) and in test [2] (numeric value) were < 35 nM and 16.2 nM, respectively.
The like results for `COc1ncc(C(C)(C)N)c2cc(Nc3ccc4c(n3)[C@H](C)[C@H](C)OC4=O)ncc12` (single isomer, unassigned) [Compound 40] were, in that order, < 0.3 nM, 0.15 nM, < 35 nM and 4 nM.
Consider `CCOc1ncc(C(C)(C)N)c2cc(Nc3ccc4c(n3)C[C@H](C)OC4=O)ncc12` (single isomer, unassigned) [Compound 41], for which the values for the IC50 in test [1] (class designation) and in test [1] (numeric value) were 0.31 to 1 nM and 0.57 nM, respectively. Moreover, the EC50 in test [2] (class designation) was < 35 nM; in test [2] (numeric value), 22.7 nM.
As for `CCOc1ncc(C(C)(C)N)c2cc(Nc3ccc4c(n3)C[C@@H](C)OC4=O)ncc12` (single isomer, unassigned) [Compound 42], the IC50 in test [1] (class designation) is 0.31 to 1 nM; in test [1] (numeric value) it was 0.86 nM. Moreover, the concentration giving a half-maximal response (EC50) was < 35 nM in test [2] (class designation) and 13.6 nM in test [2] (numeric value).
In the case of `CCOc1ncc(C(C)(C)N)c2cc(Nc3ccc4c(n3)[C@@H](C)COC4=O)ncc12` (single isomer, unassigned) [Compound 43], the figures for the IC50 in test [1] (class designation) and in test [1] (numeric value) were < 0.3 nM and 0.23 nM, respectively. Moreover, the figures for the EC50 in test [2] (class designation) and in test [2] (numeric value) were < 35 nM and 8.3 nM, respectively.
The like results for `CCOc1ncc(C(C)(C)N)c2cc(Nc3ccc4c(n3)[C@H](C)COC4=O)ncc12` (single isomer, unassigned) [Compound 44] were, in that order, 1.1 to 10 nM, 1.2 nM, < 35 nM and 22 nM.
As for `CCOc1ncc(C(C)(C)N)c2cc(Nc3ccc4c(n3)[C@@H](C)[C@@H](C)OC4=O)ncc12` (single isomer, unassigned) [Compound 59], the IC50 in test [1] (class designation) is 1.1 to 10 nM; in test [1] (numeric value), 3.35 nM. For the same molecule, the figures for the EC50 in test [2] (class designation) and in test [2] (numeric value) were > 55 nM and 56.7 nM, respectively.
Take `CCOc1ncc(C(C)(C)N)c2cc(Nc3ccc4c(n3)[C@H](C)[C@H](C)OC4=O)ncc12` (single isomer, unassigned) [Compound 60]: the IC50 in test [1] (class designation) was < 0.3 nM; in test [1] (numeric value) it was 0.18 nM. In addition, the values for the EC50 in test [2] (class designation) and in test [2] (numeric value) were < 35 nM and 10.3 nM, respectively.
For the molecule `C[C@@H]1OC(=O)c2ccc(Nc3cc4c(C(C)(C)N)cnc(O[C@H]5C[C@H](F)C5)c4cn3)nc2[C@H]1C` [Compound 161], the IC50 in test [1] (class designation) was 1.1 to 10 nM; in test [1] (numeric value) it was 1.37 nM.
Turning to `C[C@@H]1OC(=O)c2ccc(Nc3cc4c(C(C)(C)N)cnc(OCC5(F)CC5)c4cn3)nc2[C@H]1C` [Compound 162], the IC50 in test [1] (class designation) is < 0.3 nM; in test [1] (numeric value), 0.24 nM.
For the molecule `C[C@@H]1OC(=O)c2ccc(Nc3cc4c(C(C)(C)N)cnc(O[C@H]5C[C@@H](F)C5)c4cn3)nc2[C@H]1C` [Compound 163], the results for the IC50 in test [1] (class designation) and in test [1] (numeric value) were < 0.3 nM and 0.25 nM, respectively.
Turning to `CC1(C)Cc2nc(Nc3cc4c([C@@](C)(N)C5CCC5)cnc(OC5CC5)c4cn3)ccc2C(=O)O1` [Compound 169], in test [1] (class designation), the IC50 fell in the range of 1.1 to 10 nM.
On to `CC1(C)Cc2nc(Nc3cc4c(C(C)(C)NCCO)cnc(OC5CC5)c4cn3)ccc2C(=O)O1` [Compound 177, 2-((8-Cyclopropoxy-5-(2-((2-hydroxyethyl)amino)propan-2-yl)-2,7-naphthyridin-3-yl)amino)-7,7-dimethyl-7,8-dihydro-5H-pyrano[4,3-b]pyridin-5-one], for which the IC50 in test [1] (class designation) was 1.1 to 10 nM; in test [1] (numeric value), 6.52 nM.
On to `CC1(Oc2ncc([C@](C)(N)C3CC3)c3cc(Nc4ccc5c(n4)C(C)(C)COC5=O)ncc23)CC1` [Compound 185], for which the IC50 in test [1] (class designation) is 0.31 to 1 nM; in test [1] (numeric value) it was 0.35 nM.
For the molecule `C[C@@H]1OC(=O)c2ccc(Nc3cc4c(C(C)(C)N)cnc(OC5(C)CC5)c4cn3)nc2C1(C)C` [Compound 186], the figures for the IC50 in test [1] (class designation) and in test [1] (numeric value) were 0.31 to 1 nM and 0.4 nM, respectively.
Consider `CC[C@](C)(N)c1cnc(OC2CC2)c2cnc(Nc3ccc4c(n3)C3(CC3)[C@H](C)OC4=O)cc12` [Compound 187], for which the figures for the IC50 in test [1] (class designation) and in test [1] (numeric value) were < 0.3 nM and 0.06 nM, respectively.
The like results for `COC[C@@](C)(N)c1cnc(OC2CC2)c2cnc(Nc3ccc4c(n3)[C@H](C)[C@H](C)OC4=O)cc12` [Compound 190] were, in that order, < 0.3 nM and 0.19 nM.
Take `CC[C@@H](N)c1cnc(OC2(C)CC2)c2cnc(Nc3ccc4c(n3)[C@@H](C)C(C)(C)OC4=O)cc12` [Compound 191]: the IC50 was 0.31 to 1 nM in test [1] (class designation) and 0.53 nM in test [1] (numeric value).
In the case of `CC(C)(N)c1cnc(OC2CC2)c2cnc(Nc3ccc4c(n3)C3(CC3)C(C)(C)OC4=O)cc12` [Compound 195], the results for the IC50 in test [1] (class designation) and in test [1] (numeric value) were < 0.3 nM and 0.27 nM, respectively.
Consider `C[C@@H]1OC(=O)c2ccc(Nc3cc4c(C(C)(C)N)cnc(OC5(C)COC5)c4cn3)nc2[C@H]1C` [Compound 197], for which the results for the IC50 in test [1] (class designation) and in test [1] (numeric value) were 0.31 to 1 nM and 0.34 nM, respectively.
Taken in the same sequence, the figures for `CC1(Oc2ncc(C(C)(C)N)c3cc(Nc4cnc5c(c4)C(=O)C(C)(C)OC5=O)ncc23)COC1` [Compound 198] were < 0.3 nM and 0.27 nM.
`CC1(Oc2ncc(C(C)(C)N)c3cc(Nc4ccc5c(n4)C4(CC4)C(C)(C)OC5=O)ncc23)CC1` [Compound 199]: the results for the IC50 in test [1] (class designation) and in test [1] (numeric value) were 0.31 to 1 nM and 0.36 nM, respectively.
The like results for `COC[C@@](C)(N)c1cnc(OC2CC2)c2cnc(Nc3ccc4c(n3)CC(C)(C)OC4=O)cc12` [Compound 200] were, in that order, 0.31 to 1 nM and 0.48 nM.
For the molecule `COC[C@@](C)(N)c1cnc(OC)c2cnc(Nc3ccc4c(n3)[C@@H](C)C(C)(C)OC4=O)cc12` [Compound 201], the IC50 is < 0.3 nM in test [1] (class designation) and 0.14 nM in test [1] (numeric value).
Consider `CC[C@@H](N)c1cnc(C)c2cnc(Nc3ccc4c(n3)[C@@H](C)[C@H](C)OC4=O)cc12` [Compound 202], for which the IC50 in test [1] (class designation) was 0.31 to 1 nM; in test [1] (numeric value) it was 0.62 nM.
Taken in the same sequence, the figures for `CC[C@@H](N)c1cnc(OC)c2cnc(Nc3ccc4c(n3)[C@@H](C)[C@H](C)OC4=O)cc12` [Compound 203] were 0.31 to 1 nM and 0.5 nM.
As to `COC[C@@](C)(N)c1cnc(C)c2cnc(Nc3ccc4c(n3)[C@@H](C)C(C)(C)OC4=O)cc12` [Compound 206], the IC50 was < 0.3 nM in test [1] (class designation) and 0.19 nM in test [1] (numeric value).
Regarding `CC[C@@H](N)c1ccc(Cl)c2cnc(Nc3ccc4c(n3)[C@@H](C)C(C)(C)OC4=O)cc12` [Compound 209], the IC50 in test [1] (class designation) fell in the range of 0.31 to 1 nM.

Source of the values: US11534441B2, “MAP4K1 inhibitors” (Blueprint Medicines Corporation, priority 2020, dated 2022).
